23 compounds from patent US7932255B2, “2-aminocarbonyl substituted piperazine or diaza-cyclic compounds as apoptosis protein inhibitors (lap) modulators” (Novartis AG, priority 2006, dated 2011) can be followed below.

Where no end group is shown, it is not given here.

T1 sequence (P98170 248-358 limits assumed, species assumed): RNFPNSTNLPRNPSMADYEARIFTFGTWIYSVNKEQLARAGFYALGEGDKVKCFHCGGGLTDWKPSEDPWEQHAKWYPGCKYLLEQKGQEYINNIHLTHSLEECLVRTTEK

The first experiment addresses T1, XIAP (Homo sapiens, UniProt P98170).
T1 construct: GST
As to the kind of experiment: Disruption of the Smac peptide-(XIAP)BIR3 protein-protein interaction (Tables 2 and 3). The format is binding.
Conditions: not given
A digest of the protocol: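 Compounds compete with immobilized Smac peptide for the XIAP BIR3 pocket. Percent inhibition at 4 concentrations (usually 3- or 10-fold series from 10 μM); IC50 by logarithmic regression, normalized to an average reference-inhibitor IC50.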
`CN[C@@H](C)C(=O)N[C@H](C(=O)N1CCN(C(=O)Oc2ccc(F)cc2)C[C@H]1C(=O)NC1CCCc2ccccc21)C(C)C` (stereo partly drawn) [Compound 34, (S)-4-[(S)-3-Methyl-2-((S)-2-methylamino-propionylamino)-butyryl]-3-(1,2,3,4-tetrahydro-naphthalen-1-ylcarbamoyl)-piperazine-1-carboxylic acid 4-fluoro-phenyl ester]: the IC50 (as a rule, the concentration that gives 50% inhibition) was less than 10 µM.

The same experiment, now with this note: Series A compounds, Table 2; read-out: XIAP IC50.
With `CN[C@@H](C)C(=O)N[C@H](C(=O)N1CCN(CCC(F)(F)F)C[C@H]1C(=O)NC1CCCc2ccccc21)C(C)C` (stereo partly drawn) [Compound 20, (S)-1-[(S)-3-Methyl-2-((S)-2-methylamino-propionylamino)-butyryl]-4-(3,3,3-trifluoro-propyl)-piperazine-2-carboxylic acid (1,2,3,4-tetrahydro-naphthalen-1-yl)-amide], the concentration for half-maximal inhibition (IC50) was less than 10 µM.
On the same count and under the same terms, the value for `CN[C@@H](C)C(=O)N[C@H](C(=O)N1CCN(C(=O)OCc2ccccc2)C[C@H]1C(=O)NC1CCCc2ccccc21)C(C)C` (stereo partly drawn) [Compound 13, (S)-4-[(S)-3-Methyl-2-((S)-2-methylamino-propionylamino)-butyryl]-3-(1,2,3,4-tetrahydro-naphthalen-1-ylcarbamoyl)-piperazine-1-carboxylic acid benzyl ester] was less than 10 µM; that for `CCN1CCN(C(=O)[C@@H](NC(=O)[C@H](C)NC)C(C)C)[C@H](C(=O)NC2CCCc3ccccc32)C1` (stereo partly drawn) [Compound 32, (S)-4-Ethyl-1-[(S)-3-methyl-2-((S)-2-methylamino-propionylamino)-butyryl]-piperazine-2-carboxylic acid (1,2,3,4-tetrahydro-naphthalen-1-yl)-amide] was less than 10 µM; that for `CN[C@@H](C)C(=O)N[C@H](C(=O)N1CCN(C(=O)NC(C)C)C[C@H]1C(=O)NC1CCCc2ccccc21)C(C)C` (stereo partly drawn) [Compound 48, (S)-4-[(S)-3-Methyl-2-((S)-2-methylamino-propionylamino)-butyryl]-piperazine-1,3-dicarboxylic acid 1-isopropylamide 3-[(1,2,3,4-tetrahydro-naphthalen-1-yl)-amide]] was less than 10 µM.
On the same count and under the same terms, the value for `CN[C@@H](C)C(=O)N[C@H](C(=O)N1CCN(S(C)(=O)=O)C[C@H]1C(=O)NC1CCCc2ccccc21)C(C)C` (stereo partly drawn) [Compound 30, (S)-4-Methanesulfonyl-1-[(S)-3-methyl-2-((S)-2-methylamino-propionylamino)-butyryl]-piperazine-2-carboxylic acid (1,2,3,4-tetrahydro-naphthalen-1-yl)-amide] was less than 10 µM.
Consider `CN[C@@H](C)C(=O)N[C@H](C(=O)N1CCN(C(=O)c2ccc(F)cc2)C[C@H]1C(=O)NC1CCCc2ccccc21)C(C)C` (stereo partly drawn) [Compound 17, (S)-4-(4-Fluoro-benzoyl)-1-[(S)-3-methyl-2-((S)-2-methylamino-propionylamino)-butyryl]-piperazine-2-carboxylic acid (1,2,3,4-tetrahydro-naphthalen-1-yl)-amide], for which the IC50 was less than 10 µM.
For `CN[C@@H](C)C(=O)N[C@H](C(=O)N1CCN(CCC(C)C)C[C@H]1C(=O)NC1CCCc2ccccc21)C(C)C` (stereo partly drawn) [Compound 24, (S)-4-(3-Methyl-butyl)-1-[(S)-3-methyl-2-((S)-2-methylamino-propionylamino)-butyryl]-piperazine-2-carboxylic acid (1,2,3,4-tetrahydro-naphthalen-1-yl)-amide], the IC50 was less than 10 µM.
`CN[C@@H](C)C(=O)N[C@H](C(=O)N1CCN(Cc2ccc(OC)cc2)C[C@H]1C(=O)NC1CCCc2ccccc21)C(C)C` (stereo partly drawn) [Compound 6, (S)-4-(4-Methoxy-benzyl)-1-[(S)-3-methyl-2-((S)-2-methylamino-propionylamino)-butyryl]-piperazine-2-carboxylic acid (1,2,3,4-tetrahydro-naphthalen-1-yl)-amide]: the 50% inhibitory concentration (IC50) is less than 10 µM.
Turning to `CN[C@@H](C)C(=O)N[C@H](C(=O)N1CCN(CC2CCCCC2)C[C@H]1C(=O)NC1CCCc2ccccc21)C(C)C` (stereo partly drawn) [Compound 19, (S)-4-Cyclohexylmethyl-1-[(S)-3-methyl-2-((S)-2-methylamino-propionylamino)-butyryl]-piperazine-2-carboxylic acid (1,2,3,4-tetrahydro-naphthalen-1-yl)-amide], the half-maximal inhibitory concentration (IC50) is less than 10 µM.
The same measure, in the same setting: for `CN[C@@H](C)C(=O)N[C@H](C(=O)N1CCN(Cc2ccccc2Cl)C[C@H]1C(=O)NC1CCCc2ccccc21)C(C)C` (stereo partly drawn) [Compound 45, (S)-4-(2-Chloro-benzyl)-1-[(S)-3-methyl-2-((S)-2-methylamino-propionylamino)-butyryl]-piperazine-2-carboxylic acid (1,2,3,4-tetrahydro-naphthalen-1-yl)-amide] the value was less than 10 µM; for `CN[C@@H](C)C(=O)N[C@H](C(=O)N1CCN(C(=O)c2ccc(NC(C)=O)cc2)C[C@H]1C(=O)NC1CCCc2ccccc21)C(C)C` (stereo partly drawn) [Compound 27, (S)-4-(4-Acetylamino-benzoyl)-1-[(S)-3-methyl-2-((S)-2-methylamino-propionylamino)-butyryl]-piperazine-2-carboxylic acid (1,2,3,4-tetrahydro-naphthalen-1-yl)-amide], less than 10 µM.
`CN[C@@H](C)C(=O)N[C@H](C(=O)N1CCN(Cc2ccccc2)C[C@H]1C(=O)NC1CCCc2ccccc21)C(C)C` (stereo partly drawn) [Compound 52, (S)-4-Benzyl-1-[(S)-3-methyl-2-((S)-2-methylamino-propionylamino)-butyryl]-piperazine-2-carboxylic acid (1,2,3,4-tetrahydro-naphthalen-1-yl)-amide]: the IC50 is less than 10 µM.
The same measure, in the same setting: for `CN[C@@H](C)C(=O)N[C@H](C(=O)N1CCN(CCOC)C[C@H]1C(=O)NC1CCCc2ccccc21)C(C)C` (stereo partly drawn) [Compound 38, (S)-4-(2-Methoxy-ethyl)-1-[(S)-3-methyl-2-((S)-2-methylamino-propionylamino)-butyryl]-piperazine-2-carboxylic acid (1,2,3,4-tetrahydro-naphthalen-1-yl)-amide] the value was less than 10 µM; for `CN[C@@H](C)C(=O)N[C@H](C(=O)N1CCN(C(=O)Nc2ccc(F)cc2)C[C@H]1C(=O)NC1CCCc2ccccc21)C(C)C` (stereo partly drawn) [Compound 40, (S)-4-[(S)-3-Methyl-2-((S)-2-methylamino-propionylamino)-butyryl]-piperazine-1,3-dicarboxylic acid 1-[(4-fluoro-phenyl)-amide] 3-[(1,2,3,4-tetrahydro-naphthalen-1-yl)-amide]], less than 10 µM.

Still in this experiment, the particulars now being: Series B compounds, Table 3; read-out: XIXP IC50.
`CN[C@@H](C)C(=O)N[C@H](C(=O)N1CCN(Cc2ccccc2)C[C@H]1C(=O)NCCc1cccc(F)c1)C(C)C` [Compound 63, (S)-4-Benzyl-1-[(S)-3-methyl-2-((S)-2-methylamino-propionylamino)-butyryl]-piperazine-2-carboxylic acid [2-(3-fluoro-phenyl)-ethyl]-amide]: the IC50 is less than 10 µM.
Turning to `CN[C@@H](C)C(=O)N[C@H](C(=O)N1CCN(Cc2ccccc2)C[C@H]1C(=O)NC1CCc2ccccc2C1)C(C)C` (stereo partly drawn) [Compound 74, (S)-4-Benzyl-1-[(S)-3-methyl-2-((S)-2-methylamino-propionylamino)-butyryl]-piperazine-2-carboxylic acid (1,2,3,4-tetrahydro-naphthalen-2-yl)-amide], the 50% inhibitory concentration (IC50) is less than 10 µM.
The same measure, in the same setting: the value for `CN[C@@H](C)C(=O)N[C@H](C(=O)N1CCN(Cc2ccccc2)C[C@H]1C(=O)NC1Cc2ccccc2C1)C(C)C` [Compound 78, (S)-4-Benzyl-1-[(S)-3-methyl-2-((S)-2-methylamino-propionylamino)-butyryl]-piperazine-2-carboxylic acid indan-2-ylamide] was less than 10 µM.
As for `CN[C@@H](C)C(=O)N[C@H](C(=O)N1CCN(Cc2ccccc2)C[C@H]1C(=O)NCc1ccccc1)C(C)C` [Compound 65, (S)-4-Benzyl-1-[(S)-3-methyl-2-((S)-2-methylamino-propionylamino)-butyryl]-piperazine-2-carboxylic acid benzylamide], the IC50 is less than 10 µM.
For `CN[C@@H](C)C(=O)N[C@H](C(=O)N1CCN(Cc2ccccc2)C[C@H]1C(=O)N1Cc2ccccc2C1)C(C)C` [Compound 85, (S)-N-{(S)-1-[(S)-4-Benzyl-2-(1,3-dihydro-isoindole-2-carbonyl)-piperazine-1-carbonyl]-2-methyl-propyl}-2-methylamino-propionamide], the IC50 is less than 10 µM.
Consider `CN[C@@H](C)C(=O)N[C@H](C(=O)N1CCN(Cc2ccccc2)C[C@H]1C(=O)NCCC(C)C)C(C)C` [Compound 83, (S)-4-Benzyl-1-[(S)-3-methyl-2-((S)-2-methylamino-propionylamino)-butyryl]-piperazine-2-carboxylic acid (3-methyl-butyl)-amide], for which the IC50 is greater than 10 µM.
Consider `CN[C@@H](C)C(=O)N[C@H](C(=O)N1CCN(Cc2ccccc2)C[C@H]1C(=O)N[C@H](C)c1ccccc1)C(C)C` [Compound 87, (S)-4-Benzyl-1-[(S)-3-methyl-2-((S)-2-methylamino-propionylamino)-butyryl]-piperazine-2-carboxylic acid ((R)-1-phenyl-ethyl)-amide], for which the half-maximal inhibitory concentration (IC50) was less than 10 µM.

For a further experiment, the system named is GST-BIR3 fusion protein. Description: FMAT Smac peptide / GST-BIR3 competition assay. The format is binding. The conditions noted are these: competing GST-BIR3 off the FMAT beads; read-out: IC50 for non-biotinylated Smac (FMAT). On the procedure: In order to measure the ability of the inventive compounds to bind the BIR3 peptide binding pocket, a solution phase assay on the FMAT or ELISA technology platform is utilized.
Biotinylated Smac 7-mer peptide (AVPIAQK, lysine ε-amino group is biotinylated) is immobilized on streptavidin coated beads. GST-BIR3 fusion protein is precipitated with FMAT beads and is detected using fluorescent tagged anti-GST antibodies. […] The IC50 for non-biotinylated Smac is 400 nM.
On to AVPIAQK [non-biotinylated Smac], for which the IC50 was 0.4 µM.
